Test results from US6992100B2, “sPLA2 inhibitors” (Eli Lilly and Company, priority 2001, dated 2006).
Structures can show the parent of a compound that is named as a salt.

Legend:
[1] = target: T1, recombinant human secreted phospholipase A2 (Homo sapiens, UniProt P14555); experiment: chromogenic assay of recombinant human secreted phospholipase A2 inhibition; format: biochemical; conditions: diheptanoyl thio-PC substrate, pH 7.5, 40° C. 30 minutes, absorbance at 405 nanometers, triplicate
T1 sequence (P14555 21-144): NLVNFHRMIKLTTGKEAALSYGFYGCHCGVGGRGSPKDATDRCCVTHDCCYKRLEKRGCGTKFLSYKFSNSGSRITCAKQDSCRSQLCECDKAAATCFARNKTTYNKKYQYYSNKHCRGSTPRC
Excerpt: The following chromogenic assay procedure was used to identify and evaluate inhibitors of recombinant human secreted phospholipase A2. The assay described herein has been adapted for high volume screening using 96 well microtiter plates. A general description of this assay method is found in the article, “Analysis of Human Synovial Fluid Phospholipase A2 on Short Chain Phosphatidylcholine-Mixed Micelles: Development of a Spectrophotometric Assay Suitable for a Microtiterplate Reader”, by Laure J. Reynolds, Lori L. Hughes, and Edward A. Dennis, Analytical Biochemistry, 204, pp. 190–197, 1992 (the disclosure of which is incorporated herein by reference): […]
A measured volume of racemic dipheptanoyl thio PC supplied in chloroform at a concentration of 100 mg/ml is taken to dryness and redissolved in 10 millimolar TRITON X-100™ nonionic detergent aqueous solution. […]
5. Read absorbance of wells at 405 nanometers with an automatic plate reader.
Tests were done in triplicate. […] Compounds initially found to be active were re-assayed to confirm their activity and, if sufficiently active, IC50 values were determined. […] In all cases, % inhibition measured at 405 nanometers generated by enzyme reactions containing inhibitors relative to the uninhibited control reactions was determined. […]

Row | IC50 [1] | melting point | Compound
1 | 410 µM |  | NC(=O)c1cccc2c1c1c(OCC(=O)O)c3c(cc1n2Cc1ccccc1)CCCC3 [Example 2, (5-Benzyl-1-carbamoyl-7,8,9,10-tetrahydro-5H-benzo[b]carbazol-11-yloxy)-acetic acid, sodium salt]
2 |  | 242 to 245 °C | NC(=O)c1c2ccsc2nc2c1c1ccccc1n2Cc1ccccc1 [Example 3, 9-Benzyl-9H-1-thia-9,10-diaza-cyclopenta[b]fluorene-4-carboxylic acid amide]
3 | 38.6 µM |  | NC(=O)c1cccc2c1c1c(OCC(=O)O)c3ccccc3cc1n2Cc1ccccc1 [Example 1, (5-Benzyl-1-carbamoyl-5H-benzo[b]carbazol-11-yloxy)-acetic acid, sodium salt]
